The text below walks through data of paper PMC6911642 (Cancer research, 2019).

The structures appear in SMILES notation.

For one experiment, the target named is T1, PERK (Rattus norvegicus, UniProt Q9Z1Z1).
T1 sequence (Q9Z1Z1 28-1108): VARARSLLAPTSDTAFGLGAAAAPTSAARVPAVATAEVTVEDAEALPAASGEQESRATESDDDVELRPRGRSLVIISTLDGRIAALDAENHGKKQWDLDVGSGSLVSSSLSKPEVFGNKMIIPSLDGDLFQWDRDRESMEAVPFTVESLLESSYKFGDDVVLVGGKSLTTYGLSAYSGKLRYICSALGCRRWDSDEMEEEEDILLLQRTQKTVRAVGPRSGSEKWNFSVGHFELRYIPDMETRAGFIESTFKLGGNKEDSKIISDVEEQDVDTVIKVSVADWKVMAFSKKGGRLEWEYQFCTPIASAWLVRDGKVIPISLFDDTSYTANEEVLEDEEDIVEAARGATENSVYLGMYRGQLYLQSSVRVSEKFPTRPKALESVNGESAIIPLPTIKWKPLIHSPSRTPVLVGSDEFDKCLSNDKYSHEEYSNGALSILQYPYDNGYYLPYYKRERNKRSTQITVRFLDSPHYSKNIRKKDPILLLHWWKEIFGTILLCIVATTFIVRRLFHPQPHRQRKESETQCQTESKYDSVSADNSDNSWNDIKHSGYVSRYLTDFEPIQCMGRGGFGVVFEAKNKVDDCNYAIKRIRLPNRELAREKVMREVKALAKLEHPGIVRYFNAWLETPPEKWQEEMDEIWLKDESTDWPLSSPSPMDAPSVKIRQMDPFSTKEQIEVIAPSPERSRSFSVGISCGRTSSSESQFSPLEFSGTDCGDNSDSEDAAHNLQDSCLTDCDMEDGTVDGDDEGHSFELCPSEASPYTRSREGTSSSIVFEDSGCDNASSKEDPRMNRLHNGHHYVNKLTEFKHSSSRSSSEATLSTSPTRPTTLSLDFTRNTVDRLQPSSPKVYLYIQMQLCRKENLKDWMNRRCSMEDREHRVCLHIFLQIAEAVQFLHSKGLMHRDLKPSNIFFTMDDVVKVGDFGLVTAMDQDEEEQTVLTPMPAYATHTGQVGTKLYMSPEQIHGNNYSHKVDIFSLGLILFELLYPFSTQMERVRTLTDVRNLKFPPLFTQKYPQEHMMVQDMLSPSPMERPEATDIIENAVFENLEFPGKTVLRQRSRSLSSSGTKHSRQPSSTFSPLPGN
Description: Inhibition of PERK autophosphorylation. In kind it is cell-based.

In another experiment the target is IRE1α (Rattus norvegicus, UniProt A0A4Y1YQ52). Description: Inhibition of IRE1α RNase output. In kind it is cell-based.
Sequence of IRE1α (A0A4Y1YQ52 21-977): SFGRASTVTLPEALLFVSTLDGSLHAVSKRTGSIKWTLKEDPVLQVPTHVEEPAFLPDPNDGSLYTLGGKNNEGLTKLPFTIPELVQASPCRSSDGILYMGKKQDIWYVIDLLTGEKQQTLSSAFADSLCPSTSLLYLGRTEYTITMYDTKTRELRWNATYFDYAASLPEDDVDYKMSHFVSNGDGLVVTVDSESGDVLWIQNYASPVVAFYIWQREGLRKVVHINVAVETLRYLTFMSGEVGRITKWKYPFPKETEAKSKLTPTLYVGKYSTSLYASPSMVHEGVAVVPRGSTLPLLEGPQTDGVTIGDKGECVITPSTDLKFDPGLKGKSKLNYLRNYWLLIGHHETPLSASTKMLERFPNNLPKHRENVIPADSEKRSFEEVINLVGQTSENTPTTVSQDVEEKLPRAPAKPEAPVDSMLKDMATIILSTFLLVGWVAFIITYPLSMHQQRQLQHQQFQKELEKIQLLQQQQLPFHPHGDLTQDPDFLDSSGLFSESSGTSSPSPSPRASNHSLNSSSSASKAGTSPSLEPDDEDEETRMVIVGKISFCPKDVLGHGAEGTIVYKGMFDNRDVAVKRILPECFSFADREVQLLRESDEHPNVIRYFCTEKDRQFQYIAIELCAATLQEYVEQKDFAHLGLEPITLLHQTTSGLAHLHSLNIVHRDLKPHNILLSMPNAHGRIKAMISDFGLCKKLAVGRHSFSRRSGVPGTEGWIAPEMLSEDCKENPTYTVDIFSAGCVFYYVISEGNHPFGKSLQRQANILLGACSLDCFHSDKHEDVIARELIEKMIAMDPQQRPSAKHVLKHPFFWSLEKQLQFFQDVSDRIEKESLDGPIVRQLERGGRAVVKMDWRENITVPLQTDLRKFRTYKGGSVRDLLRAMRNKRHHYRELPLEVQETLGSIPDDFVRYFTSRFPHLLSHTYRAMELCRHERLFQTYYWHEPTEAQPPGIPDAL

Compound `Cc1cccc(CC(=O)N2CCc3c2ccc(-c2cn(C)c4ncnc(N)c24)c3F)n1` [GSK2656157] came in with an IC50 against PERK of about 125 nM.

On to `Cc1ccc2c(NS(=O)(=O)c3ccccc3Cl)cccc2c1Oc1ncccc1-c1ccnc(N[C@H]2CCCNC2)n1` [KIRA8], for which the IC50 against IRE1α was about 125 nM.

One may read the IC50 as the concentration that inhibits the measured activity by half.
